Read-outs that look alike come from different tables or passages of the source.
Legend:
[1] = Attempt to dissolve pure CBD in beverages; type: physicochemical; conditions: 2.7 mg in 25 ml of beverage
Description: Samples of still water (Mei Eden bottled water), carbonated water (made by Tempo Soda), alcoholic lager beer (Carlsberg) and orange juice (made by Primor) were prepared using each of CBD-Whey and Whey only. 25 ml of beverage was prepared for each sample, and 45 mg of CBD-Whey (which contains 2.7 mg of CBD). […] The study continued with comparison of CBD-Whey and Whey only. Volunteers, who were Cannabis naïve, were given 8 samples, in a randomized order and were asked to fill a questionnaire relating to appearance, taste and smell of samples. Evaluations were performed by 6 volunteers for each of the 8 samples (four beverages with CBD-Whey and four beverages with Whey only.)

[2] = THC in plasma, intravenously, 5 mg/kg single dose
[3] = male, Sprague-Dawley, rat, plasma, iv, 5 mg/kg

Structure (SMILES): C=C(C)[C@@H]1CCC(C)=C[C@H]1c1c(O)cc(CCCCC)cc1O [CBD, cannabidiol]
- dissolution in beverages [1]: crystalline CBD was visible

Structure (SMILES): CCCCCc1cc(O)c2c(c1)OC(C)(C)[C@@H]1CCC(C)=C[C@@H]21 [IV, tetrahydrocannabinol]
- AUC0−∞/D [2]: 121 kg·ng·h/mL/mg
- CL/F [2]: 137.2 mL/min/kg
- Cmax/D [2]: 202 kg·ng/mL/mg
- F (THC, intravenously, 5 mg/kg single dose (reference)): 100%
- AUC(0-inf) [3]: 607 ng·h/mL
- AUC(0-t) [3]: 575 ng·h/mL
- Cmax [3]: 1010 ng/mL
- Tmax [3]: 5 min
- half-life (male, Sprague-Dawley, rat, plasma, iv, 5 mg/kg, t1/2, THC in plasma, intravenously, 5 mg/kg single dose): 10.8 h
- half-life (male, Sprague-Dawley, rat, plasma, iv, 5 mg/kg, terminal t1/2, after IV administration, analysis that included the 24 hr time point): ~10 h

From patent US12220438B2, “Protein based cannabis compositions” (IZUN PHARMACEUTICALS CORP., priority 2019, dated 2025)
